Test results from publication PMC11726150, “Pre‐ADMET studies of 5‐(3′,4′‐dihydroxyphenyl)‐γ‐valerolactone, the bioactive intestinal metabolite of proanthocyanidins” (Archiv Der Pharmazie, 2024).

Experiment: MTT cell viability assay
Type: cell-based, canine
Settings: dog, Wt-MDCK cells, 1.5–50 µM, 6 h exposure, read-out: cells remaining viable
Experimental: The effect of test samples on cell viability was measured using an MTT assay. Briefly, exponentially growing 2 × 10^4 cells/200 μL were seeded in 96‐well plates and allowed to grow until reaching their differentiation state. Cells were treated with different concentrations of VL (50–1.6 µM) and positive control camptothecin (30–1 μM) serially diluted in serum‐free medium. After incubation, 10 μL of MTT dye (5 mg/mL stock in PBS) was added to each well, and plates were additionally incubated for 4 h. Further, media were aspirated, and cells were washed with 100 μL of phosphate buffer saline. The formazan blue crystals formed by viable cells were dissolved in 150 μL of DMSO, and the absorbance was measured at 580 nm on a Bio‐Tek, Synergy HT Multi‐Mode, plate reader. The % decrease in viability of sample‐treated cells was calculated compared with vehicle‐treated cells.^[ [46] ^]

O=C1CCC(Cc2ccc(O)c(O)c2)O1 (stereo not shown) [VL, 5‐(3′,4′‐dihydroxyphenyl)‐γ‐valerolactone]
viability at 6 h: > 90%
